# Test results from patent US11746100B2 (GLOBAL BLOOD THERAPEUTICS, INC., priority 2020, dated 2023).
# Target: T1, human ferroportin (Homo sapiens, UniProt Q9NP59)
# T1 construct: luciferase reporter (read with the Nano-Glo Luciferase Assay System); expressed in transfected cells; host or cells: CHO cells, stably transfected, expression induced with doxycycline
# T1 sequence (Q9NP59 1-571): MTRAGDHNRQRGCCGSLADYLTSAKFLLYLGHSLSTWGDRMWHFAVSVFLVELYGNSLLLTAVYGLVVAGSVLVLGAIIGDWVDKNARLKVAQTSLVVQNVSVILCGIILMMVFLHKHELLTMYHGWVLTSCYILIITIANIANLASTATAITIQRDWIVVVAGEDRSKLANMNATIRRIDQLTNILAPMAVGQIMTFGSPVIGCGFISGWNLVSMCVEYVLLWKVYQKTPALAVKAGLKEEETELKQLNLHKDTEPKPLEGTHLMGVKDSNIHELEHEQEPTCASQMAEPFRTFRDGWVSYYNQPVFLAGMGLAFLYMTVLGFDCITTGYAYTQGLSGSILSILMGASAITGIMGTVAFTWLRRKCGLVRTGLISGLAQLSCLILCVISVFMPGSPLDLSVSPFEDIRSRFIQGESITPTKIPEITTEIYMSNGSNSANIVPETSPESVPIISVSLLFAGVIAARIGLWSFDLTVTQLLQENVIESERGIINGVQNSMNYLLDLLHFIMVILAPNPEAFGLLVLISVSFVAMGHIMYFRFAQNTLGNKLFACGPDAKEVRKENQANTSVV
# Experiment: Biological in-vitro ferroportin internalization assay (luciferase reporter)
# Format: cell-based
# Details: average pEC50; stably-transfected CHO cell line expressing human ferroportin tagged to a luciferase reporter; 6 h incubation with test compound
# Procedure, shortened: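 Stably transfected CHO cells expressing luciferase-tagged human ferroportin, plated 24 h with ferric ammonium citrate and induced with doxycycline for 24 h. Compounds incubated 6 h, then luciferase activity measured by Nano-Glo; average pEC50 reported.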
row,Compound,pEC50
1,"CC(C(=O)NC1CCCCC1)N(C)c1nc(-c2ccccn2)nc2c1CCC2 (centres unmarked) [Compound 91, N-cyclohexyl-2-{methyl[2-(pyridin-2-yl)-5H,6H,7H-cyclopenta[d]pyrimidin-4-yl]amino}propanamide]",7.3
2,"c1ccc(-c2nc3c(c(N4CCCOCC4)n2)CCC3)nc1 [Compound 93, 4-[2-(pyridin-2-yl)-5H,6H,7H-cyclopenta[d]pyrimidin-4-yl]-1,4-oxazepane]",6.1
3,"c1nc(-c2nc3c(c(N4CCCCCC4)n2)CCC3)cs1 [Compound 94, 1-[2-(1,3-thiazol-4-yl)-5H,6H,7H-cyclopenta[d]pyrimidin-4-yl]azepane]",6.3
4,"CN(c1nc(-c2ccccn2)nc2c1CCC2)C1CCN(c2ccccc2)C1=O (centres unmarked) [Compound 95, 3-{methyl[2-(pyridin-2-yl)-5H,6H,7H-cyclopenta[d]pyrimidin-4-yl]amino}-1-phenylpyrrolidin-2-one]",7.3
5,"COc1ccnc(-c2nc3c(c(N(C)CC(=O)NC4(C(F)(F)F)CC4)n2)CCC3)c1 [Compound 99, 2-{[2-(4-methoxypyridin-2-yl)-5H,6H,7H-cyclopenta[d]pyrimidin-4-yl](methyl)amino}-N-[1-(trifluoromethyl)cyclopropyl]acetamide]",7.3
6,"CCc1ccnc(-c2nc3c(c(N(C)CC(=O)NC(C)(C)C)n2)CCC3)c1 [Compound 100, N-tert-butyl-2-{[2-(4-ethylpyridin-2-yl)-5H,6H,7H-cyclopenta[d]pyrimidin-4-yl](methyl)amino}acetamide]",7.5
7,"COc1ccnc(-c2nc3c(c(N(C)[C@H](C)C(=O)NC(C)(C)C)n2)CCC3)c1 [Compound 101, (2R)—N-tert-butyl-2-{[2-(4-methoxypyridin-2-yl)-5H,6H,7H-cyclopenta[d]pyrimidin-4-yl](methyl)amino}propanamide]",8.2
8,"Cc1ccnc(-c2nc3c(c(N(C)CC(=O)NC4(C)CCCC4)n2)CCC3)c1 [Compound 105, 2-{methyl[2-(4-methylpyridin-2-yl)-5H,6H,7H-cyclopenta[d]pyrimidin-4-yl]amino}-N-(1-methylcyclopentyl)acetamide]",7.7
9,"C[C@H](C(=O)NC1CCCCC1)N(C)c1nc(-c2ccccn2)nc2c1CCC2 [Compound 108, (2R)—N-cyclohexyl-2-{methyl[2-(pyridin-2-yl)-5H,6H,7H-cyclopenta[d]pyrimidin-4-yl]amino}propanamide]",7.6
10,"CC(C)[C@H](C(=O)NC(C)(C)C)N(C)c1nc(-c2ccccn2)nc2c1CCC2 [Compound 114, (2R)—N-tert-butyl-3-methyl-2-{methyl[2-(pyridin-2-yl)-5H,6H,7H-cyclopenta[d]pyrimidin-4-yl]amino}butanamide]",7.6
11,"CC(C)[C@@H](C(=O)NC(C)(C)C)N(C)c1nc(-c2ccccn2)nc2c1CCC2 [Compound 115, (2S)—N-tert-butyl-3-methyl-2-{methyl[2-(pyridin-2-yl)-5H,6H,7H-cyclopenta[d]pyrimidin-4-yl]amino}butanamide]",7.1
12,"CN(c1nc(-c2ccccn2)nc2c1CCC2)[C@@H](COC(C)(C)C)C(=O)NC(C)(C)C [Compound 120, (2S)-3-(tert-butoxy)-N-tert-butyl-2-{methyl[2-(pyridin-2-yl)-5H,6H,7H-cyclopenta[d]pyrimidin-4-yl]amino}propanamide]",7.2
13,"CN(c1nc(-c2ccccn2)nc2c1CCC2)[C@H](COC(C)(C)C)C(=O)NC(C)(C)C [Compound 121, (2R)-3-(tert-butoxy)-N-tert-butyl-2-{methyl[2-(pyridin-2-yl)-5H,6H,7H-cyclopenta[d]pyrimidin-4-yl]amino}propanamide]",7.9

# Results, then the compound that gave them:
row,pEC50,Compound
1,6.5,"c1ccc(-c2nc3c(c(N4CCCCCC4)n2)CCC3)nc1 [Compound 92, 1-[2-(pyridin-2-yl)-5H,6H,7H-cyclopenta[d]pyrimidin-4-yl]azepane]"
2,6.6,"Clc1ccnc(-c2nc3c(c(N4CCCCCC4)n2)CCC3)c1 [Compound 96, 1-[2-(4-chloropyridin-2-yl)-5H,6H,7H-cyclopenta[d]pyrimidin-4-yl]azepane]"
3,7.1,"Cn1cnc(-c2nc3c(c(N4CCCCCC4)n2)CCC3)c1 [Compound 97, 1-[2-(1-methyl-1H-imidazol-4-yl)-5H,6H,7H-cyclopenta[d]pyrimidin-4-yl]azepane]"
4,7,"CN(CC(=O)NC1(C(F)(F)F)CC1)c1nc(-c2ccccn2)nc2c1CCC2 [Compound 98, 2-{methyl[2-(pyridin-2-yl)-5H,6H,7H-cyclopenta[d]pyrimidin-4-yl]amino}-N-[1-(trifluoromethyl)cyclopropyl]acetamide]"
5,7.1,"CN(C)c1ccnc(-c2nc3c(c(N(C)CC(=O)NC(C)(C)C)n2)CCC3)c1 [Compound 102, N-tert-butyl-2-({2-[4-(dimethylamino)pyridin-2-yl]-5H,6H,7H-cyclopenta[d]pyrimidin-4-yl}(methyl)amino)acetamide]"
6,6.4,"Cc1cccnc1-c1nc2c(c(N(C)CC(=O)NC(C)(C)C)n1)CCC2 [Compound 103, N-tert-butyl-2-{methyl[2-(3-methylpyridin-2-yl)-5H,6H,7H-cyclopenta[d]pyrimidin-4-yl]amino}acetamide]"
7,7.2,"Cc1ccc(-c2nc3c(c(N(C)CC(=O)NC(C)(C)C)n2)CCC3)nc1 [Compound 104, N-tert-butyl-2-{methyl[2-(5-methylpyridin-2-yl)-5H,6H,7H-cyclopenta[d]pyrimidin-4-yl]amino}acetamide]"
8,5.7,"CN(CC(=O)NC(C)(C)C)c1nc(-c2ncc(CCO)s2)nc2c1CCC2 [Compound 107, N-tert-butyl-2-({2-[5-(2-hydroxyethyl)-1,3-thiazol-2-yl]-5H,6H,7H-cyclopenta[d]pyrimidin-4-yl}(methyl)amino)acetamide]"
9,7,"C[C@H](C(=O)NC1CC(F)(F)C1)N(C)c1nc(-c2ccccn2)nc2c1CCC2 [Compound 109, (2R)—N-(3,3-difluorocyclobutyl)-2-{methyl[2-(pyridin-2-yl)-5H,6H,7H-cyclopenta[d]pyrimidin-4-yl]amino}propanamide]"
10,7.9,"CN(CC(=O)NC(C)(C)C)c1nc(-c2cc3cn[nH]c3cn2)nc2c1CCC2 [Compound 110, N-tert-butyl-2-[methyl(2-{1H-pyrazolo[3,4-c]pyridin-5-yl}-5H,6H,7H-cyclopenta[d]pyrimidin-4-yl)amino]acetamide]"
11,7.2,"CN(CC(=O)NC1(C(F)(F)F)CC1)c1nc(-c2cn(C)cn2)nc2c1CCC2 [Compound 111, 2-{methyl[2-(1-methyl-1H-imidazol-4-yl)-5H,6H,7H-cyclopenta[d]pyrimidin-4-yl]amino}-N-[1-(trifluoromethyl)cyclopropyl]acetamide]"
12,8,"C[C@H](C(=O)NC(C)(C)C)N(C)c1nc(-c2cn(C)cn2)nc2c1CCC2 [Compound 112, (2R)—N-tert-butyl-2-{methyl[2-(1-methyl-1H-imidazol-4-yl)-5H,6H,7H-cyclopenta[d]pyrimidin-4-yl]amino}propanamide]"
13,7.7,"CN(CC(=O)NC(C)(C)C)c1nc(-c2cc(CCO)ccn2)nc2c1CCC2 [Compound 113, N-tert-butyl-2-({2-[4-(2-hydroxyethyl)pyridin-2-yl]-5H,6H,7H-cyclopenta[d]pyrimidin-4-yl}(methyl)amino)acetamide]"
14,7.4,"CSCC[C@H](C(=O)NC(C)(C)C)N(C)c1nc(-c2ccccn2)nc2c1CCC2 [Compound 116, (2R)—N-tert-butyl-2-{methyl[2-(pyridin-2-yl)-5H,6H,7H-cyclopenta[d]pyrimidin-4-yl]amino}-4-(methylsulfanyl)butanamide]"
15,6.9,CSCC[C@@H](C(=O)NC(C)(C)C)N(C)c1nc(-c2ccccn2)nc2c1CCC2 [Compound 117]
16,7.8,"C[C@H](C(=O)NC1CCCCC1)N(C)c1nc(-c2cn(C)cn2)nc2c1CCC2 [Compound 118, (2R)—N-cyclohexyl-2-{methyl[2-(1-methyl-1H-imidazol-4-yl)-5H,6H,7H-cyclopenta[d]pyrimidin-4-yl]amino}propanamide]"
17,7.7,"COc1ccnc(-c2nc3c(c(N(C)[C@H](C)C(=O)NC4CCCCC4)n2)CCC3)c1 [Compound 119, (2R)—N-cyclohexyl-2-{[2-(4-methoxypyridin-2-yl)-5H,6H,7H-cyclopenta[d]pyrimidin-4-yl](methyl)amino}propanamide]"
18,7.8,"CN(CC(=O)NC(C)(C)C)c1nc(-c2cc3c(cn2)OCCO3)nc2c1CCC2 [Compound 122, N-tert-butyl-2-[(2-{2H,3H-[1,4]dioxino[2,3-c]pyridin-7-yl}-5H,6H,7H-cyclopenta[d]pyrimidin-4-yl)(methyl)amino]acetamide]"
19,7.2,"CN(c1nc(-c2ccccn2)nc2c1CCC2)[C@@H](CO)C(=O)NC(C)(C)C [Compound 123, (2S)—N-tert-butyl-3-hydroxy-2-{methyl[2-(pyridin-2-yl)-5H,6H,7H-cyclopenta[d]pyrimidin-4-yl]amino}propanamide]"
